Among the data in patent US20240391959A1, “BICYCLIC PEPTIDE LIGANDS […] FOR TRANSFERRIN RECEPTOR 1 (TfR1)” (BicycleTx Limited, priority 2020, published 2024) are IC50, Kd and Ki values, retold here.

Each structure is given as a SMILES string. Starred links: 1 amine or outer side, 2 acyl side, 3 side chain; linkers in the order of their positions; H or OH if unused. Positions of bridges follow the written chain, without caps; N, C: chain ends. Residues, ends and D or L forms follow the SMILES beside them. TATA = O=C(CC[*:1])N1CN(C(=O)CC[*:2])CN(C(=O)CC[*:3])C1

As a reminder, the IC50 is the point on the concentration scale where inhibition reaches its midpoint. By Kd is commonly meant the equilibrium constant for the complex coming apart. High values mean a looser complex, low ones a tighter complex. In general, Ki refers to the equilibrium dissociation constant of an inhibitor or competing ligand from its target. High values mean a looser hold on the target, low ones a stronger hold on the target.

In assay [1] the target is T1, human TfR1 (Homo sapiens, UniProt P02786). The assay can be described thus: TfR1 inhibition assay (Alpha assay, transferrin inhibition). Particulars: inhibition of fluorescently labelled human transferrin binding; read-out: Geomean IC50 (μM) Human TfR1. The method, then:
TfR1 inhibitory activity of peptides of the invention (IC50) was determined using Alpha assay, in accordance with the following method. Proteins, peptides and Alpha reagents were prepared to 5× concentration and 5 μl of each reagent added to 25 μl total volume in white 384-well Optiplate to make 1× final concentration. Fluorescently labelled human transferrin (Invitrogen, T2871) was diluted to 2.5 nM in 25 mM HEPES with 100 mM NaCl, 4 mM CaCl2, 0.5% BSA and 0.05% P20, pH 7.4. Human or cynomolgus TfR1 protein was diluted to 50 nM and unlabelled human transferrin (R&D Systems, 2914-HT) was diluted to 500 nM in the same assay buffer. Non-labelled peptides from DMSO stock were diluted 20-fold in the same assay buffer, followed by 1 in 3 serial dilution in assay buffer containing 5% DMSO to give 11-different concentrations. 5 μl fluorescently labelled transferrin, 5 μl human or cynomolgus TfR1, 5 μl non-labelled peptide or unlabelled human transferrin (R&D Systems, 2914-HT) were added to white 384-well Optiplate and incubated for 30 min. Anti-FITC Acceptor (PerkinElmer, AL127) was diluted 50-fold in assay buffer, 5 μl added to assay plate and incubated for 30 min. […] Luminescence measurements were conducted on a BMG PHERAstar FS or FSX equipped with an AlphaScreen 520-620 module at 25° C. following excitation at 680 nm. […]
Target sequence in this assay (P02786 whole entry): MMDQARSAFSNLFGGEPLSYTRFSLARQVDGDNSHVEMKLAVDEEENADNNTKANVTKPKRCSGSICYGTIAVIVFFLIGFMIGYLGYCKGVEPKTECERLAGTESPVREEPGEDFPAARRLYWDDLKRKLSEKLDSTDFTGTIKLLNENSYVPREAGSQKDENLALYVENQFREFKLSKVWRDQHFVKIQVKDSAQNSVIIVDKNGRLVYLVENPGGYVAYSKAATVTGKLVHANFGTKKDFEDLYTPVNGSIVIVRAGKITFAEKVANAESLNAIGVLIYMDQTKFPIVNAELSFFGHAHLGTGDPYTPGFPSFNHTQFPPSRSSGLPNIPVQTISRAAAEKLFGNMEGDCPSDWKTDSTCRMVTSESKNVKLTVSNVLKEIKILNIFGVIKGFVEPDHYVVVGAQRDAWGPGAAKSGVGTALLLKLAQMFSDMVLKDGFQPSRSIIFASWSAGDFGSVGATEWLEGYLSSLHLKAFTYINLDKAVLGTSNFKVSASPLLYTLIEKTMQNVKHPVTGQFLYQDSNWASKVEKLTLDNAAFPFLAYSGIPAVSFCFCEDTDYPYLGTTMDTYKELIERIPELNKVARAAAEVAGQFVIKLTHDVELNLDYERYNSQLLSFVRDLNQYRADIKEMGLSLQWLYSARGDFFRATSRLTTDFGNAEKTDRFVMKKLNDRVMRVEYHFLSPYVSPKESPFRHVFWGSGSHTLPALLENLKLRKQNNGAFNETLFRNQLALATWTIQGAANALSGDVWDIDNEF

Assay [2] concerns the target cynomolgus TfR1. The format is binding.
The target of assay [3] is cynomolgus TfR1. The format is binding. The source holds these as a separate data set.
The target of assay [4] is T1, human TfR1. Description: biochemical. Particulars: Human TfR1 Kd (nM). The format is binding. Set-up: His6-tagged TfR1 (a.a. 89-760) (ACRO Biosystems, CD1-H5243 and TFR-C524a); His6; purchased R&D Systems or Acro Biosystems 2474-TR or CD1-H5243.
Target sequence in this assay (P02786 89-760): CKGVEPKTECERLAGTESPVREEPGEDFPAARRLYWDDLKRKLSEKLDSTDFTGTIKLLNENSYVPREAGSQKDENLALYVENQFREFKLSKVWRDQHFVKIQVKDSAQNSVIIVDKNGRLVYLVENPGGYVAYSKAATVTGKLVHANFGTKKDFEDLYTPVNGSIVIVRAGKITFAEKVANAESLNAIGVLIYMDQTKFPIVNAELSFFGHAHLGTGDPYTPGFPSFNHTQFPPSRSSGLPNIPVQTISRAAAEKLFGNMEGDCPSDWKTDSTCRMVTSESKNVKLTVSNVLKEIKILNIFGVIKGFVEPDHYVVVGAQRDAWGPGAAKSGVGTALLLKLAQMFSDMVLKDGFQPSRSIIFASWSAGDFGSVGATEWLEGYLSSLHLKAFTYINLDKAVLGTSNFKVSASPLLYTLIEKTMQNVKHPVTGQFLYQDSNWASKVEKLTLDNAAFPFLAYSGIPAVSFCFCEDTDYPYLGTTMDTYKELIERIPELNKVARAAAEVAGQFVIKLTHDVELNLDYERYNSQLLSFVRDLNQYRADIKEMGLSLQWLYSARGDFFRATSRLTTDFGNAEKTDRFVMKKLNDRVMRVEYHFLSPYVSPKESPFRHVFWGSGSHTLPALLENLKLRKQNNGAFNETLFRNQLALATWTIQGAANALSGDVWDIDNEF
For assay [5], the target named is T1, human TfR1. Description: biochemical. The arrangement: His6-tagged TfR1 (a.a. 89-760) (ACRO Biosystems, CD1-H5243 and TFR-C524a); His6; purchased R&D Systems or Acro Biosystems 2474-TR or CD1-H5243. The format is binding. As to conditions: Human TfR1 Ki (nM).
Target sequence in this assay (P02786 89-760): as above

Regarding `CC[C@H](C)[C@@H]1NC(=O)[C@H](Cc2ccccc2)NC(=O)[C@H](C)NC(=O)[C@H](CC(C)C)NC(=O)CNC(=O)[C@@H]2CSCCC(=O)N3CN(CN(C3)C(=O)CCSC[C@@H](C(=O)N[C@@H](C)C(N)=O)NC(=O)[C@H](CCC(=O)O)NC1=O)C(=O)CCSC[C@H](NC(=O)[C@H](C)N)C(=O)N[C@@H](CCCNC(=N)N)C(=O)N[C@@H](CCC(=O)O)C(=O)N[C@@H](Cc1ccccc1)C(=O)N[C@@H](Cc1ccccc1)C(=O)N[C@@H](CC(=O)O)C(=O)N[C@@H]([C@@H](C)O)C(=O)N2` [BCY12452, A-(SEQ ID NO: 2)-A] (H-ACREFFDTCGLAFIECA-NH2; linker 2-9-16 via TATA; N-terminus and C-terminus assumed), in assay [1], the IC50 worked out at 1.21 µM.

For the molecule `CC[C@H](C)[C@@H]1NC(=O)[C@@H]2CSCC(=O)N3CN(CN(C3)C(=O)CSC[C@@H](C(=O)N[C@@H](C)C(N)=O)NC(=O)[C@H](Cc3ccc(O)cc3)NC(=O)[C@H](CO)NC1=O)C(=O)CSC[C@H](NC(=O)[C@H](C)N)C(=O)N[C@@H](CO)C(=O)N1CCC[C@H]1C(=O)N[C@@H](CC(=O)O)C(=O)N[C@@H](C)C(=O)N[C@@H](Cc1c[nH]cn1)C(=O)N[C@@H](CC(C)C)C(=O)NCC(=O)N2` [BCY15468, A-(SEQ ID NO: 9)-A], the figures for the dissociation constant (Kd) in assay [2] and in assay [4] were 4.01 µM and 29 nM, respectively. The Ki was 1.23 µM in assay [3] and 103 nM in assay [5].
